Laboratory results reported in patent US20140213576A1, “NOVEL COMPOUND USEFUL FOR THE TREATMENT OF DEGENERATIVE AND INFLAMMATORY DISEASES” (GALAPAGOS NV, priority 2013, published 2014).
Where “and” joins values, the source holds several entries; their conditions need not be identical. Identical values can stand only once.

What was measured:
CTLL2 (ATCC TIB-214) = assay: CTLL2 viability assay; assay type: cell-based; conditions: IL2-dependent viability, ATP-lite, individual determinations
Procedure: The protocol describes the methods to analyse the activity of compounds on the ability to sustain the IL2-dependent viability of CTLL2 (ATCC TIB-214).
Negative control is a DMSO dilution, positive control at 10 μM. Final DMSO concentration is 0.1%.

[1] = biological target: T1, Recombinant human TYK2 catalytic domain (Homo sapiens, UniProt P29597); assay: TYK2 inhibition assay (polyGT substrate); assay type: biochemical; conditions: 0.1 μM ATP, individual determinations, read-out: IC50 against TYK2
T1 construct: Recombinant human TYK2 catalytic domain (amino acids 871-1187; catalog number 08-147); purchased Carna biosciences 08-147
T1 sequence (P29597 871-1187): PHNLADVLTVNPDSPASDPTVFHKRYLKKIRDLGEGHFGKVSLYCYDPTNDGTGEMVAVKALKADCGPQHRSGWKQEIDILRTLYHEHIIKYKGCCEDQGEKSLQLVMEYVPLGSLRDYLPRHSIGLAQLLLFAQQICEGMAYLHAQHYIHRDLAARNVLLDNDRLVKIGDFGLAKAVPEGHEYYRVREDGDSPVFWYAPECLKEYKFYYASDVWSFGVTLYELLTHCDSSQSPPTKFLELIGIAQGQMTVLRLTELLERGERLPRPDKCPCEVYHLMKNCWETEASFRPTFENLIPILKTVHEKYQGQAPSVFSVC
Procedure: Recombinant human TYK2 catalytic domain (amino acids 871-1187; catalog number 08-147) was purchased from Carna biosciences. 5 ng of TYK2 was incubated with 12.5 μg polyGT substrate (Sigma catalog number P0275) in kinase reaction buffer (25 mM Hepes pH 7.2, 50 mM NaCl, 0.5 mM EDTA, 1 mM DTT, 5 mM MnCl2, 10 mM MgCl2, 0.1% Brij-35, 0.1 μM non-radioactive ATP, 0.125 μCi ^33P-gamma-ATP (GE Healthcare, catalog number AH9968) final concentrations) with or without 5 μL containing test compound or vehicle (DMSO, 1% final concentration), in a total volume of 25 μL, in a polypropylene 96-well plate (Greiner, V-bottom). After 90 min at 30° C., reactions were stopped by adding 25 μL/well of 150 mM phosphoric acid. […] 40 μL/well of Microscint-20 was added, the top of the plates was sealed and readout was performed using the Topcount (Perkin Elmer). Kinase activity was calculated by subtracting counts per min (cpm) obtained in the presence of a positive control inhibitor (10 μM staurosporine) from cpm obtained in the presence of vehicle. The ability of a test compound to inhibit this activity was determined as:
Percentage inhibition=((cpm determined for sample with test compound present−cpm determined for sample with positive control inhibitor) divided by (cpm determined in the presence of vehicle−cpm determined for sample with positive control inhibitor))*100. […]

Compound: CCc1cc(C2CN(S(C)(=O)=O)C2)ncc1N(C)c1cc2c(cn1)ncn2C [Compound 1, [4-Ethyl-6-(1-methanesulfonyl-azetidin-3-yl)-pyridin-3-yl]-methyl-(1-methyl-1H-imidazo[4,5-d]pyridin-6-yl)-amine]
- IC50 (CTLL2 (ATCC TIB-214); 24 h, listed as compound of the invention): 3790 nM
- IC50 (CTLL2 (ATCC TIB-214); Mus musculus, CTLL-2, 24 h): 7390 nM
- IC50 [1]: 844 nM and 461 nM and 470 nM and 488 nM and 759 nM and 754 nM and 1000 nM and 501 nM and 688 nM
